Source: patent US10730905B2, “Substituted heteropentadieno-pyrrolopyrimidine ribonucleosides for therapeutic use” (USTAV ORGANICKE CHEMIE A BIOCHEMIE AV CR, V.V.I., priority 2016, dated 2020)

Assays:
[1] = tested on: A549 (human lung adenocarcinoma); assay: MTT cytotoxic test, A549; type: cell-based; settings: A549 cells
Description: (§1) MTT test (Nosková V. et al., Neoplasma 2002, 49, 418-425) was used for in vitro evaluation of antitumor activities of newly synthesized compounds on cell lines derived from normal tissues or tumors. Specifically, cell lines K562 (human acute myeloid leukemia); K562-Tax (human acute myeloid leukemia, paclitaxel resistant subline, overexpress multiple drug resistant protein PgP); CEM (T-lymfoblastic leukemia); CEM-DNR-bulk (T-lymfoblastic leukemia, doxorubicin resistant); A549 (human lung adenocarcinoma); HCT116p53 wt (human colorectal cancer, wild-type); HCT116p53−/− (human colorectal cancer, mutant p53) a U2OS (human bone osteosarcoma) were used. Express characteristics, susceptibility profiles of classic antitumor drugs as well as methodology of cytotoxic MTT test have been repeatedly published (Denizot, F.; Lang, R., J. Immunol. Meth. 1986, 89, 271-277; Noskova, V., see above; S̆arek J. et al., J, Med. Chem., 2003).

[2] = tested on: CCRF-CEM (CEM, T-lymfoblastic leukemia); assay: MTT cytotoxic test, CCRF-CEM; type: cell-based; settings: Homo sapiens, CCRF-CEM cells
Description: as §1

[3] = tested on: CEM-DNR-bulk (T-lymfoblastic leukemia, doxorubicin resistant); assay: MTT cytotoxic test, CEM-DNR; type: cell-based; settings: Homo sapiens, CEM-DNR cells
Description: as §1

[4] = tested on: HCT116p53 wt (human colorectal cancer, wild-type); assay: MTT cytotoxic test, HCT116; type: cell-based; settings: HCT-116, HCT116 cells, p53 wild type
Description: as §1

[5] = tested on: HCT116p53−/− (human colorectal cancer, mutant p53); assay: MTT cytotoxic test, HCT116p53; type: cell-based; settings: HCT116p53 cells (p53 −/−)
Description: as §1

[6] = tested on: K562 (human acute myeloid leukemia); assay: MTT cytotoxic test, K562; type: cell-based; settings: K562 cells
Description: as §1

[7] = tested on: K562-Tax (human acute myeloid leukemia, paclitaxel resistant subline); assay: MTT cytotoxic test, K562-TAX; type: cell-based; settings: K562-TAX cells
Description: as §1

[8] = tested on: U2OS (human bone osteosarcoma); assay: MTT cytotoxic test, U2OS; type: cell-based; settings: U2OS cells
Description: as §1

[9] = MTT cytotoxic test, MRC-5; type: cell-based; settings: MRC-5 cells (normal fibroblasts), MRC-5 normal human fibroblasts

SMILES | IC50 [1] [µM] | IC50 [2] [nM] | IC50 [3] [µM] | IC50 [4] [µM] | IC50 [5] [µM] | IC50 [6] [nM] | IC50 [7] [µM] | IC50 [8] [µM] | IC50 [9] [µM] | melting point
Cc1ncnc2c1c1occc1n2[C@@H]1O[C@H](CO)[C@@H](O)[C@H]1O [Compound 1a, 4-Methyl-8-(β-D-ribofuranosyl)-8H-furo[2′,3′:4,5]pyrrolo[2,3-d]pyrimidine] | 0.9 to 10 | 200 to 900 | 25 to 50 | 0.2 to 0.9 | 0.2 to 0.9 | 200 to 900 | 0.9 to 10 | 0.2 to 0.9 | 25 to 50 | –
COc1ncnc2c1c1occc1n2[C@@H]1O[C@H](CO)[C@@H](O)[C@H]1O [Compound 1b, 4-Methoxy-8-(β-D-ribofuranosyl)-8H-furo[2′,3′:4,5]pyrrolo[2,3-d]pyrimidine] | 0.9 to 10 | 10 to 200 | 0.9 to 10 | 0.2 to 0.9 | 0.2 to 0.9 | 200 to 900 | 0.2 to 0.9 | 0.2 to 0.9 | 10 to 25 | 216 to 219 °C
CSc1ncnc2c1c1occc1n2[C@@H]1O[C@H](CO)[C@@H](O)[C@H]1O [Compound 1c] | 0.9 to 10 | 200 to 900 | 0.9 to 10 | 0.2 to 0.9 | 0.2 to 0.9 | 200 to 900 | 0.9 to 10 | 0.2 to 0.9 | 0.9 to 10 | 213 to 217 °C
Nc1ncnc2c1c1occc1n2[C@@H]1O[C@H](CO)[C@@H](O)[C@H]1O [Compound 1d, 8-(β-D-ribofuranosyl)-8H-furo[2′,3′:4,5]pyrrolo[2,3-d]pyrimidin-4-amine] | 25 to 50 | 25000 to 50000 | 25 to 50 | 25 to 50 | 25 to 50 | 900 to 10000 | 25 to 50 | 0.9 to 10 | 25 to 50 | 246 to 253 °C
OC[C@H]1O[C@@H](n2c3ccoc3c3c(-c4ccco4)ncnc32)[C@H](O)[C@@H]1O [Compound 1e, 4-(Furan-2-yl)-8-(β-D-ribofuranosyl)-8H-furo[2′,3′:4,5]pyrrolo[2,3-d]pyrimidine] | 25 to 50 | 200 to 900 | 25 to 50 | 25 to 50 | 25 to 50 | 900 to 10000 | 0.9 to 10 | 0.9 to 10 | 25 to 50 | –
OC[C@H]1O[C@@H](n2c3ccoc3c3c(-c4ccoc4)ncnc32)[C@H](O)[C@@H]1O [Compound 1f, 4-(Furan-3-yl)-8-(β-D-ribofuranosyl)-8H-furo[2′,3′:4,5]pyrrolo[2,3-d]pyrimidine] | 25 to 50 | 200 to 900 | 25 to 50 | 10 to 25 | 10 to 25 | 200 to 900 | 0.9 to 10 | 0.2 to 0.9 | 25 to 50 | –
OC[C@H]1O[C@@H](n2c3ccoc3c3c(-c4cc5ccccc5o4)ncnc32)[C@H](O)[C@@H]1O [Compound 1g, 4-(Benzofuran-2-yl)-8-(β-D-ribofuranosyl)-8H-furo[2′,3′:4,5]pyrrolo[2,3-d]pyrimidine] | 25 to 50 | 10000 to 25000 | 25 to 50 | 25 to 50 | 25 to 50 | 25000 to 50000 | 10 to 25 | 25 to 50 | 25 to 50 | –
CN(C)c1ncnc2c1c1occc1n2[C@@H]1O[C@H](CO)[C@@H](O)[C@H]1O [Compound 1h, N,N-dimethyl-8-(β-D-ribofuranosyl)-8H-furo[2′,3′:4,5]pyrrolo[2,3-d]pyrimidin-4-amine] | 25 to 50 | 25000 to 50000 | 25 to 50 | 25 to 50 | 25 to 50 | 25000 to 50000 | 25 to 50 | 25 to 50 | 25 to 50 | 212 to 255 °C (dec.)
Cc1ncnc2c1c1c(ccn1C)n2[C@@H]1O[C@H](CO)[C@@H](O)[C@H]1O [Compound 2a, 4,5-Dimethyl-8-(β-D-ribofuranosyl)-5,8-dihydropyrrolo[2′,3′:4,5]pyrrolo[2,3-d]pyrimidine] | – | 200 to 900 | 25 to 50 | 0.2 to 0.9 | 0.2 to 0.9 | 200 to 900 | 25 to 50 | 0.2 to 0.9 | 25 to 50 | 237 to 241 °C
COc1ncnc2c1c1c(ccn1C)n2[C@@H]1O[C@H](CO)[C@@H](O)[C@H]1O [Compound 2b, 4-Methoxy-5-methyl-8-(β-D-ribofuranosyl)-5,8-dihydropyrrolo[2′,3′:4,5]pyrrolo[2,3-d]pyrimidine] | 25 to 50 | 200 to 900 | 25 to 50 | 0.2 to 0.9 | 0.2 to 0.9 | 200 to 900 | 25 to 50 | 0.9 to 10 | 25 to 50 | 231 to 234 °C
CSc1ncnc2c1c1c(ccn1C)n2[C@@H]1O[C@H](CO)[C@@H](O)[C@H]1O [Compound 2c, 5-Methyl-4-(methylsulfanyl)-8-(β-D-ribofuranosyl)-5,8-dihydropyrrolo[2′,3′:4,5]pyrrolo-[2,3-d]-pyrimidine] | 25 to 50 | 200 to 900 | 25 to 50 | 0.2 to 0.9 | 0.2 to 0.9 | 200 to 900 | 25 to 50 | 0.9 to 10 | 25 to 50 | 212 to 214 °C
Cn1ccc2c1c1c(N)ncnc1n2[C@@H]1O[C@H](CO)[C@@H](O)[C@H]1O [Compound 2d, 5-methyl-8-(β-D-ribofuranosyl)-5,8-dihydropyrrolo[2′,3′:4,5]pyrrolo[2,3-d]pyrimidin-4-amine] | 25 to 50 | 25000 to 50000 | 25 to 50 | 25 to 50 | 25 to 50 | 25000 to 50000 | 25 to 50 | 25 to 50 | 25 to 50 | 240 to 245 °C (dec.)
Cn1ccc2c1c1c(-c3ccco3)ncnc1n2[C@@H]1O[C@H](CO)[C@@H](O)[C@H]1O [Compound 2e, 4-(Furan-2-yl)-5-methyl-8-(β-D-ribofuranosyl)-5,8-dihydropyrrolo[2′,3′:4,5]pyrrolo[2,3-d]pyrimidine] | 25 to 50 | 25000 to 50000 | 25 to 50 | 25 to 50 | 25 to 50 | 25000 to 50000 | 25 to 50 | 0.9 to 10 | 25 to 50 | 245 to 253 °C
Cn1ccc2c1c1c(-c3ccoc3)ncnc1n2[C@@H]1O[C@H](CO)[C@@H](O)[C@H]1O [Compound 2f, 4-(Furan-3-yl)-5-methyl-8-(β-D-ribofuranosyl)-5,8dihydropyrrolo[2′,3′:4,5]pyrrolo[2,3-d]pyrimidine] | 25 to 50 | 25000 to 50000 | 25 to 50 | 25 to 50 | 0.9 to 10 | 900 to 10000 | 25 to 50 | 0.9 to 10 | 25 to 50 | 202 to 207 °C
Cn1ccc2c1c1c(-c3cc4ccccc4o3)ncnc1n2[C@@H]1O[C@H](CO)[C@@H](O)[C@H]1O [Compound 2g, 4-(Benzofuran-2-yl)-5-methyl-8-(β-D-ribofuranosyl)-5,8-dihydropyrrolo[2′,3′:4,5]pyrrolo[2,3-d]pyrimidine] | 25 to 50 | 10000 to 25000 | 25 to 50 | 25 to 50 | 25 to 50 | 25000 to 50000 | 25 to 50 | 25 to 50 | 25 to 50 | 145 to 154 °C
CN(C)c1ncnc2c1c1c(ccn1C)n2[C@@H]1O[C@H](CO)[C@@H](O)[C@H]1O [Compound 2h, N,N,5-trimethyl-8-(β-D-ribofuranosyl)-5,8-dihydropyrrolo[2′,3′:4,5]pyrrolo[2,3-d]pyrimidin-4-amine] | 25 to 50 | 25000 to 50000 | 25 to 50 | 25 to 50 | 25 to 50 | 25000 to 50000 | 25 to 50 | 25 to 50 | 25 to 50 | 99 to 106 °C
Cn1ccc2c1c1c(Cl)ncnc1n2[C@@H]1O[C@H](CO)[C@@H](O)[C@H]1O [Compound 2i, 4-chloro-5-methyl-8-(β-D-ribofuranosyl)-5,8-dihydropyrrolo[2′,3′:4,5]pyrrolo[2,3-d]pyrimidine] | 0.9 to 10 | 10 to 200 | 25 to 50 | 0.01 to 0.2 | 0.01 to 0.2 | 10 to 200 | 25 to 50 | 0.9 to 10 | 25 to 50 | 217 to 219 °C
